Test results from patent publication US20220324815A1, “2-PHENOXY-PYRIMIDINE DERIVATIVES AS HERBICIDAL COMPOUNDS” (SYNGENTA CROP PROTECTION AG, priority 2019, published 2022).

Legend:
Type in all cases: in vivo
Conditions in all cases: 250 g/ha unless otherwise stated, evaluated after 13 days, five-point scale
Setaria faberi (SETFA) [1] = assay: Test 1 glasshouse herbicide test, post-emergence application (Table B1)
Outline: (§1)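 Pots sown in standard soil; sprayed 1 day (pre-emergence) or 8 days (post-emergence) after sowing at 250 g/ha unless stated, in acetone/water (50:50) with 0.5% Tween 20. Glasshouse 24/16 °C, 14 h light, 65% humidity; damage scored at 13 days on a 1–5 scale (5=81–100%, 1=0–20%).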

Lolium perenne (LOLPE) [2] = assay: as above
Outline: as §1

[3] = tested on: Echinochloa crus-galli (ECHCG); assay: as above
Outline: as §1

[4] = tested on: Amaranthus retoflexus (AMARE); assay: as above
Outline: as §1

Solanum nigrum (SOLNI) [5] = assay: as above
Outline: as §1

[6] = tested on: Ipomoea hederacea (IPOHE); assay: as above
Outline: as §1

Setaria faberi (SETFA) [7] = assay: Test 1 glasshouse herbicide test, pre-emergence application (Table B2)
Outline: as §1

Lolium perenne (LOLPE) [8] = assay: as above
Outline: as §1

[9] = tested on: Echinochloa crus-galli (ECHCG); assay: as above
Outline: as §1

[10] = tested on: Amaranthus retoflexus (AMARE); assay: as above
Outline: as §1

Solanum nigrum (SOLNI) [11] = assay: as above
Outline: as §1

[12] = tested on: Ipomoea hederacea (IPOHE); assay: as above
Outline: as §1

## N#Cc1cccc(Oc2ncc(Cl)cn2)c1S(=O)(=O)CCCC(F)(F)F [Compound A30, 3-(5-chloropyrimidin-2-yl)oxy-2-(4,4,4-trifluorobutylsulfonyl)benzonitrile]
Setaria faberi (SETFA) [1]
  % phytotoxicity SETFA, post-emergence application: 5 (5=81 to 100%)
Lolium perenne (LOLPE) [2]
  % phytotoxicity LOLPE, post-emergence application: 5 (5=81 to 100%)
[3]
  % phytotoxicity ECHCG, post-emergence application: 5 (5=81 to 100%)
[4]
  % phytotoxicity AMARE, post-emergence application: 5 (5=81 to 100%)
Solanum nigrum (SOLNI) [5]
  % phytotoxicity SOLNI, post-emergence application: 5 (5=81 to 100%)
[6]
  % phytotoxicity IPOHE, post-emergence application: 4 (4=61 to 80%)
Setaria faberi (SETFA) [7]
  % phytotoxicity SETFA, pre-emergence application: 5 (5=81 to 100%)
Lolium perenne (LOLPE) [8]
  % phytotoxicity LOLPE, pre-emergence application: 5 (5=81 to 100%)
[9]
  % phytotoxicity ECHCG, pre-emergence application: 5 (5=81 to 100%)
[10]
  % phytotoxicity AMARE, pre-emergence application: 5 (5=81 to 100%)
Solanum nigrum (SOLNI) [11]
  % phytotoxicity SOLNI, pre-emergence application: 5 (5=81 to 100%)
[12]
  % phytotoxicity IPOHE, pre-emergence application: 5 (5=81 to 100%)
